The target in test [1] is T1, MAP kinase-activated protein kinase 5 (Homo sapiens, UniProt Q8IW41).
T1 sequence (Q8IW41 whole entry): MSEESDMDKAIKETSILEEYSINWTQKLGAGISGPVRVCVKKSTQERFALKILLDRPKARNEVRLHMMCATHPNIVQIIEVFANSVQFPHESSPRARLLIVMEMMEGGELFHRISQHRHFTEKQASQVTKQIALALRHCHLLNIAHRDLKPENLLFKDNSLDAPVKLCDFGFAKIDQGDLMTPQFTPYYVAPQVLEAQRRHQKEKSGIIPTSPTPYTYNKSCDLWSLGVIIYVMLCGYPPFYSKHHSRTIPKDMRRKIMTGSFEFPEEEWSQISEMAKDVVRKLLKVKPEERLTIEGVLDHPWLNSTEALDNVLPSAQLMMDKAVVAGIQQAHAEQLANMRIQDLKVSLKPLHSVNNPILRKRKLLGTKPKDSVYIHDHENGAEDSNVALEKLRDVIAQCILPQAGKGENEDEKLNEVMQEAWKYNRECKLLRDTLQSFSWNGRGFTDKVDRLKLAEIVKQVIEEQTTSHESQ
The test is described as follows: Inhibition of MAPKAPK5.

For test [2], the target named is T1, MAP kinase-activated protein kinase 5. The test is described as follows: Inhibition of MAPKAPK5 in synovial fibroblast from rheumatoid arthritis patient assessed as inhibition of TNF-alpha-induced MMP1 expression incubated for 30 mins prior to TNFalpha-challenge measured after 48 hrs by ELISA. (In general: An ELISA detects its analyte on a solid surface through an enzyme-linked reagent.)

pIC50: −log10 of the molar value.

The pIC50 is the negative decadic logarithm of the IC50, by convention in mol/L.

On to `CN(c1ccc(N2CCOCC2)cc1)c1ncc(-c2cn[nH]c2)n2ccnc12`, for which the pIC50 in test [1] was < 5.00.
Regarding `c1cn2c(-c3c[nH]nn3)cnc(Nc3ccc(N4CCOCC4)cc3)c2n1`, the values for the pIC50 in test [2] and in test [1] were < 5.00 and 5.83, respectively.
For `NS(=O)(=O)c1ccc(-c2cnc(Nc3ccc(N4CCOCC4)cc3)c3nccn23)cc1`, in that order: < 5.00 and < 5.00.
Consider `NC(=O)c1ccc(-c2cnc(Nc3ccc(N4CCOCC4)cc3)c3nccn23)cc1F`, for which the pIC50 was < 5.00 in test [2] and 5.62 in test [1].
As for `CCOc1cc(-c2cnc(Nc3ccc(N4CCOCC4)cc3)c3nccn23)ccn1`, the pIC50 in test [1] is < 5.00.
The same measure, in the same setting: for `CN(C)c1cc(-c2cnc(Nc3ccc(N4CCOCC4)cc3)c3nccn23)ccn1` the value was < 5.00.
As for `NC(=O)c1cnc(-c2cnc(Nc3ccc(N4CCOCC4)cc3)c3nccn23)s1`, the values for the pIC50 in test [2] and in test [1] were < 5.00 and 5.55, respectively.
With `NC(=O)c1ncc(-c2cnc(Nc3ccc(N4CCOCC4)cc3)c3nccn23)s1`, the pIC50 in test [2] is < 5.00; in test [1], 5.49.
As to `c1cn2c(-c3ccc4[nH]ccc4c3)cnc(Nc3ccc(N4CCOCC4)cc3)c2n1`, the pIC50 in test [1] is < 5.00.
Same read-out and setting: then `CN1CCN(c2ccc(Nc3ncc(-c4cc[nH]c(=O)c4)n4ncnc34)cc2)CC1`, with 5.43.

The values above are taken from ChEMBL document CHEMBL1955844, “Discovery of a series of imidazopyrazine small molecule inhibitors of the kinase MAPKAPK5, that show activity using in vitro and in vivo models of rheumatoid arthritis” (Bioorg Med Chem Lett, 2012).
